US20180028617A1, “METHODS OF TREATING MILD BRAIN INJURY AND POST-TRAUMATIC STRESS DISORDER” (The Regents of the University of California, priority 2015, published 2018)

What was measured:
[1] = test system: neutrophil oxidative burst in leukocytes isolated from brain tissue; assay: Oxidative burst (ROS, DHR 123 fluorescence by flow cytometry) in leukocytes isolated from brain tissue after mild brain injury by controlled cortical impact; format: in vivo, C57/B6 mice; conditions: for Oxidative burst in inflammatory cells following mBI (flow cytometry peak shift, FIG. 2): subcutaneous ghrelin, compared to untreated mBI, n=3 animals in each group
Method: FIG. 1 depicts principle of assaying oxidative burst within inflammatory cells. Dihydrorhodamine 123 (DHR 123) diffuses across the cell membrane. When it encounters reactive oxygen species (ROS), DHR 123 is oxidized and fluoresces green. The fluorescence is then measured and presented as arbitrary fluorescence unit (AFU), wherein higher intensity means greater oxidative burst and, therefore greater concentration of amount of ROS (See Chen, et al., Measurement of oxidative burst in neutrophils,” Methods Mol Biol., 844: 115-124 (2012); which is incorporated herein by reference in its entirety).
Ghrelin administration reduces oxidative burst in inflammatory cells following mBI. Since no well-accepted animal model exists for concussions, a very small cerebral lesion that closely mimics mBI is used as a model of mBI. C57/B6 mice anesthetized with 5% isoflurane in oxygen (1.7 L/min) are given 0.3 mg/kg buprenorphine subcutaneously for analgesia prior to infliction of the mild brain injury. Anesthesia is assessed by paw pinch reflex. After creating a burr hole through the dura with a dental drill, a lesion using a controlled cortical impactor (CCI) is used to create injury 1 mm lateral and posterior to the bregma (5.0 mm/sec at a depth of 1.0 mm).
Animals are separated into three treatment groups: 1) Sham, 2) mBI, and 3) mBI plus ghrelin. A variety of doses can be tested depending upon the particular ghrelin. Ghrelin can be obtained for example from Phoenix Pharmaceuticals, Inc. (Burlingame, Calif.). For example, 1 to 50 μg at one or more time points. As one example, treatment with subcutaneous ghrelin: 1 dose of 10 μg following mBI and additional dose 10 μg 1 hour after. Brain tissue is harvested at 2-8 hours, preferably about 6 hours post-injury. […] The fluorescence is then measured and presented as arbitrary fluorescence unit (AFU), wherein higher intensity means greater oxidative burst and, therefore greater concentration or amount of ROS. […] Oxidative burst, which is a marker for ROS, can be measured by flow cytometry (e.g., FL1 channel with 488-nm laser).

[2] = test system: blood brain barrier (BBB) vascular permeability; Aquaporin 4 (AQP-4); conditions: cited from earlier work

Q: With “Gly-Ser-Ser-Phe-Leu-Ser-Pro-Glu-His-Gln-Arg-Val-Gln-Gln-Arg-Lys-Glu-Ser-Lys-Lys-Pro-Pro-Ala-Lys-Leu-Gln-Pro-Arg (GSSFLSPEHQRVQQRKESKKPPAKLQPR; printed: Gly-Ser-Ser-Phe-Leu-Ser-Pro-Glu-His-Gln-Arg-Val-Gln-Gln-Arg-Lys-Glu-Ser-Lys-Lys-Pro-Pro-Ala-Lys-Leu-Gln-Pro-Arg) [ghrelin, 28-amino acid peptide neuroendocrine hormone, endogenous ligand for growth hormone secretagogue receptor; can include octanoyl acylation; obtainable from Phoenix Pharmaceuticals]” as the substance, how does the “Oxidative burst of ipsilateral whole brain following mild BI (mean fluorescence intensity)” value ([1]; mild BI + ghrelin (2 doses), subcutaneous 10 μg following mBI and 10 μg 1 hour after, vs 7963±2900 mild BI alone and 4624±1858 sham, p-value of 0.048, n=5) read?
A: 3257 AFU

Q: And the “Oxidative burst in inflammatory cells following mBI (flow cytometry peak shift, FIG. 2)” value [1]?
A: lower oxidative burst

Q: And the “Oxidative burst in inflammatory cells following mBI (flow cytometry peak shift, FIG. 2)” value ([1]; listed as Ghrelin)?
A: reduced the oxidative burst

Q: What about the “Post-TBI up-regulation of Aquaporin 4 (AQP-4)” value [2] of the same substance?
A: prevents post-TBI up-regulation of Aquaporin 4
